Data on 52 compounds can be found in ChEMBL document CHEMBL1156829 (Proc Natl Acad Sci U S A, 2008).

The subject of data set [1] is Plasmodium falciparum. In words: NOVARTIS: Inhibition of Plasmodium falciparum 3D7 (drug-susceptible) proliferation in erythrocyte-based infection assay. The note with it: Plasmodium falciparum, 3D7. It is filed as functional, organism-based.
In data set [2] the test system is Plasmodium falciparum. Description: NOVARTIS: Inhibition of Plasmodium falciparum W2 (drug-resistant) proliferation in erythrocyte-based infection assay. The following applies: Plasmodium falciparum, W2; read-out: EC50. It counts as functional, organism-based.
The nature of data set [3]: NOVARTIS: Cytotoxicity against human hepatocellular carcinoma cell line (Huh7). It counts as toxicity, cell-based, Huh-7. The note with it: Huh7 cells (hepatocellular carcinoma cell line).

In general, EC50 refers to the concentration giving half of the maximal effect. In general, CC50 refers to the concentration that lowers cell viability or growth by half. Low readings indicate greater toxicity to the cells, high ones lower toxicity to the cells. On to `COc1ccc2[nH]c3ccccc3c(=O)c2c1`, for which the EC50 with Plasmodium falciparum [1] came out at 4320 nM; in the data set with Plasmodium falciparum [2], 3140 nM. Moreover, the cytotoxic concentration (CC50) in data set [3] was greater than 100000 nM.
For the compound `CC(C)c1ccc(NC(=O)c2ccc(NCCCN(C)Cc3ccccc3)c([N+](=O)[O-])c2)cc1`, the EC50 with Plasmodium falciparum [1] amounted to 2480 nM; in the data set with Plasmodium falciparum [2], 3200 nM. The same compound yielded a CC50 in data set [3] greater than 100000 nM.
Consider `CC(C)CN1CCN(c2nc(C#N)c3c(c2C(=S)NC2CCCCC2)CC(C)(C)OC3)CC1`, for which the EC50 in the data set on Plasmodium falciparum [1] is 370 nM; in the data set with Plasmodium falciparum [2], 319 nM. Besides, in data set [3], the CC50 is greater than 10000 nM.
The matching figures for `C[n+]1ccc(/C=C/c2ccc(Br)cc2)cc1`: 455 nM, 313 nM and greater than 10000 nM.
The matching figures for `Cc1cccc(-n2c(CNC(=O)c3ccc(S(=O)(=O)N4CCCCC4)cc3)nnc2SCC(=O)Nc2nccs2)c1`: 4200 nM, 2170 nM and 67100 nM.
The matching figures for `C[n+]1ccccc1/C=C/c1ccc(Br)cc1`: 360 nM, 324 nM and greater than 10000 nM.
Consider `CCN1CCN(Cc2ccc(N(CC)CC)cc2)CC1`, for which the EC50 is greater than 12500 nM with Plasmodium falciparum [1] and 3080 nM in the data set with Plasmodium falciparum [2]. Moreover, in data set [3], the CC50 was greater than 100000 nM.
For the compound `c1ccc2cc3c(NCCN4CCOCC4)ccnc3cc2c1`, the 50% effective concentration (EC50) stood at 310 nM in the data set with Plasmodium falciparum [1] and 313 nM in the data set with Plasmodium falciparum [2]. In data set [3], the half-maximal cytotoxic concentration (CC50) is greater than 10000 nM.
As for `O=C(NNC(=S)NCc1ccco1)C(F)(F)F`, the results for the EC50 in the data set with Plasmodium falciparum [1] and in the data set on Plasmodium falciparum [2] were greater than 12500 nM and 3170 nM, respectively. Besides, in data set [3], the CC50 is greater than 100000 nM.
The matching figures for `O=C(Nc1ccon1)c1cc(-c2cccnc2)nc2ccc(Br)cc12`: 1970 nM, 2510 nM and greater than 81000 nM.
In the case of `OC1(C(F)(F)F)CC(c2ccccc2)=NN1c1nncc(-c2ccccc2)n1` (stereo unspecified), the EC50 with Plasmodium falciparum [1] is 236 nM; in the data set with Plasmodium falciparum [2] it was 314 nM. Also, the CC50 in data set [3] was greater than 10000 nM.
`Cc1ccc(-c2cc(C(F)(F)F)n3nc(C(=O)Nc4cccc(Cl)c4Cl)cc3n2)cc1`: the EC50 in the data set with Plasmodium falciparum [1] is greater than 1250 nM; with Plasmodium falciparum [2], greater than 321 nM. In data set [3], this compound came in with a cytotoxic concentration (CC50) greater than 10000 nM.
Take `COc1ccc(-c2csc(Nc3ccc(O)cc3)n2)cc1OC`: the 50% effective concentration (EC50) worked out at 2960 nM in the data set on Plasmodium falciparum [1] and 3210 nM in the data set on Plasmodium falciparum [2]. Moreover, the cytotoxic concentration (CC50) in data set [3] was greater than 100000 nM.
The matching figures for `COCCN1C(=O)c2[nH]nc(-c3ccccc3O)c2C1c1ccc(SC)cc1` (stereo unspecified): 7390 nM, 2780 nM and greater than 87600 nM.
Consider `CCOc1cc(C=NN=C(N)N)ccc1OCc1ccccc1`, for which the EC50 stood at 235 nM with Plasmodium falciparum [1] and 321 nM in the data set on Plasmodium falciparum [2]. The CC50 in data set [3] turned out to be 10100 nM.
In the case of `O=S(=O)(NCCCCNc1ccnc2cc(Cl)ccc12)c1cc(Cl)ccc1Cl`, the EC50 in the data set on Plasmodium falciparum [1] came to 391 nM; with Plasmodium falciparum [2], 338 nM. In data set [3], this compound returned a CC50 greater than 10700 nM.
The matching figures for `CCCCC(=O)N(C/C=C/c1ccccc1OC)CCN1CCN(C(=O)NC23CC4CC(CC(C4)C2)C3)CC1`: 1450 nM, 313 nM and greater than 10000 nM.
The corresponding values for `O=C(COc1ccc(Cl)cc1)NCCCCNc1ccnc2cc(Cl)ccc12` are 240 nM, 303 nM and greater than 9740 nM.
The corresponding values for `CCCCc1ccc(C(=O)NCCCCNc2ccnc3cc(Cl)ccc23)cc1` are 221 nM, 311 nM and greater than 10000 nM.
For `Cc1ccc(-c2nnc(Nc3ccc(F)cc3)c3ccccc23)cc1S(=O)(=O)NCC1CCCO1` (stereo unspecified), the EC50 was found to be 1700 nM with Plasmodium falciparum [1] and 3110 nM in the data set on Plasmodium falciparum [2]. In data set [3], this compound showed a half-maximal cytotoxic concentration (CC50) greater than 100000 nM.
The matching figures for `CCn1c(SCC(=O)NCCc2ccccc2)nc2sc3c(c2c1=O)CCN(C)C3`: greater than 4820 nM, 3100 nM and greater than 100000 nM.
The corresponding values for `O=C(NCc1cccnc1)[C@@H]1C[C@H](NC2CCN(CCc3ccccc3)CC2)CN1Cc1ccc(Cl)cc1` are 88.5 nM, 592 nM and 18500 nM.
The corresponding values for `Cc1ccc(C(=O)NCCCCNc2ccnc3cc(Cl)ccc23)cc1[N+](=O)[O-]` are 222 nM, 308 nM and greater than 10000 nM.
`CCCCN1Cc2ccc(C(=O)NC(C)C)cc2N=C1c1ccc(F)cc1`: the EC50 worked out at 722 nM in the data set on Plasmodium falciparum [1] and 325 nM in the data set on Plasmodium falciparum [2]. Besides, the CC50 in data set [3] was greater than 10000 nM.
The matching figures for `Cc1cccc(CC(=O)N2CCC[C@@H]3CN(C(=O)CCc4cccnc4)CC[C@@H]32)c1`: greater than 1250 nM, 317 nM and greater than 10000 nM.
For `CN(C)c1oc(-c2ccc(Cl)cc2Cl)nc1[P+](c1ccccc1)(c1ccccc1)c1ccccc1`, the EC50 in the data set with Plasmodium falciparum [1] was 230 nM; in the data set on Plasmodium falciparum [2] it was 365 nM. In data set [3], this compound showed a CC50 of 11600 nM.
Consider `COc1ccc(NC(=O)c2cnn(-c3ccccc3)c2NC(=O)c2ccco2)cc1`, for which the EC50 in the data set on Plasmodium falciparum [1] turned out to be 8000 nM; with Plasmodium falciparum [2], 3230 nM. The same compound returned a CC50 in data set [3] greater than 100000 nM.
The matching figures for `CC(C)(CCl)C(=O)NCCCCNc1ccnc2cc(Cl)ccc12`: 386 nM, 361 nM and greater than 11300 nM.
The matching figures for `CCCCN1C(=O)NC(c2ccc(NC(=O)c3cccs3)cc2)C(C(=O)OC(C)C)=C1C` (stereo unspecified): 8760 nM, 3170 nM and greater than 100000 nM.
The matching figures for `COc1ccccc1N1CCN(C(=O)Nc2ccc3ccccc3c2)CC1`: greater than 1280 nM, 315 nM and greater than 10000 nM.
Regarding `CCCOc1ccc2c(c1)C(=NN=C(N)N)c1cc(OCCC)ccc1-2`, the results for the EC50 in the data set with Plasmodium falciparum [1] and in the data set with Plasmodium falciparum [2] were 270 nM and 323 nM, respectively. Besides, the CC50 in data set [3] is greater than 10000 nM.
The corresponding values for `C=CC1(C)CC23CC(C(OC(=O)c4ccccc4)c4ccnc5ccccc45)N2CCC13` (stereo unspecified) are 176 nM, 938 nM and 29200 nM.
The corresponding values for `Cc1cc(Nc2cccc(F)c2)nc(NCc2ccccc2)n1` are 72.2 nM, 664 nM and 20800 nM.
The matching figures for `CCCCCN(C(=O)c1cccc(OC)c1)C(CC)c1nc2ccccc2c(=O)n1-c1ccccc1OC` (stereo unspecified): 614 nM, 318 nM and greater than 10000 nM.
`Oc1ccc2ccccc2c1CNc1nc2ccccc2[nH]1`: the EC50 in the data set with Plasmodium falciparum [1] is 652 nM; in the data set on Plasmodium falciparum [2], 450 nM. In data set [3], this compound showed a CC50 of 14300 nM.
The corresponding values for `CCOC(=O)c1ccc(-c2c(-c3cc(CC)c(OC)cc3O)noc2C)o1` are 927 nM, 433 nM and 13800 nM.
As for `Cc1cccc(NC2=NC(N)=NC(C)(C)N2)c1`, the EC50 with Plasmodium falciparum [1] amounted to 57.6 nM; in the data set with Plasmodium falciparum [2], 312 nM. For the same compound, the CC50 in data set [3] was greater than 10000 nM.
As for `COc1cc(NC(C)CCCN(Cc2ccc(OC)c(OC)c2)C(=O)Nc2cccc(Cl)c2Cl)c2ncccc2c1` (stereo unspecified), the half-maximal effective concentration (EC50) with Plasmodium falciparum [1] was found to be 691 nM; with Plasmodium falciparum [2], 203 nM. Moreover, in data set [3], it took 6290 nM to reach half-maximal cytotoxicity (CC50).
The corresponding values for `O=C(Nc1ccc(C2=NCCN2)cc1)c1ccc(-c2ccc(C(=O)Nc3ccc(C4=NCCN4)cc3)cc2)cc1` are 1320 nM, 364 nM and greater than 11700 nM.
The matching figures for `Cc1ccc(Cn2c(N3CCC(C(=O)NCc4ccc(F)cc4)CC3)nc3ccccc32)cc1`: greater than 7510 nM, 3180 nM and greater than 100000 nM.
Regarding `Cc1c(Cc2ccccc2)sc(N=Cc2ccc(Br)s2)c1C(N)=O`, the results for the EC50 with Plasmodium falciparum [1] and with Plasmodium falciparum [2] were 445 nM and 314 nM, respectively. Besides, in data set [3], the CC50 was greater than 10000 nM.
The matching figures for `NC(=N[N+](=O)[O-])Nc1ccc(NC(=O)Nc2ccc(Cl)cc2)cc1`: greater than 900 nM, 298 nM and greater than 9610 nM.
The corresponding values for `O=C(NC1CCN(CC(O)CN(Cc2ccccc2)S(=O)(=O)c2ccccc2)C1)c1ccco1` (stereo unspecified) are 1160 nM, 319 nM and greater than 10000 nM.
The matching figures for `Cc1cc(C)cc(NC(=S)NNc2ccnc3cc(Cl)ccc23)c1`: 1240 nM, 2170 nM and 67700 nM.
With `CC(=O)O[C@@H]1C(=O)[C@@]2(C)[C@H]([C@H](OC(=O)c3ccccc3)[C@@]3(O)C[C@H](OC(=O)[C@H](O)[C@@H](NC(=O)c4ccccc4)c4ccccc4)C(C)=C1C3(C)C)[C@]1(OC(C)=O)CO[C@@H]1C[C@@H]2O`, the EC50 is 98.2 nM in the data set on Plasmodium falciparum [1] and 38.6 nM in the data set on Plasmodium falciparum [2]. Moreover, the midpoint of cytotoxicity in data set [3], the CC50, lay at 1210 nM.
For the compound `Cc1ccc(N2C(=O)c3sc4nnc(C)c(=O)n4c3C2=O)cc1`, the EC50 was greater than 595 nM in the data set on Plasmodium falciparum [1] and 315 nM in the data set with Plasmodium falciparum [2]. The compound also registered a CC50 in data set [3] greater than 10000 nM.
As for `O=C(Nc1cc(Oc2ccc(F)cc2)cc([N+](=O)[O-])c1)c1nc2nc(-c3ccccc3)cc(C(F)(F)F)n2n1`, the results for the EC50 in the data set with Plasmodium falciparum [1] and in the data set on Plasmodium falciparum [2] were greater than 12500 nM and 3110 nM, respectively. In addition, the CC50 in data set [3] was greater than 100000 nM.
With `CC[C@@H](C(=O)[C@@H](C)C(O)[C@H](C)CCc1ccc(C)c(O)c1C(=O)O)C1O[C@](CC)(C2CC[C@](O)(CC)[C@H](C)O2)C[C@@H]1C` (stereo partly specified), the EC50 was determined as 541 nM with Plasmodium falciparum [1] and 315 nM in the data set on Plasmodium falciparum [2]. Further, in data set [3], the CC50 was greater than 10000 nM.
The matching figures for `COc1ccc(OC)c(-c2ccc(O)c(CNCCCN(C)C)c2)c1`: 1260 nM, 670 nM and 21400 nM.
The matching figures for `CCCCCn1c(SCc2ccc(C)cc2)nc2cc(C(=O)NCc3ccco3)ccc2c1=O`: greater than 12500 nM, 3160 nM and greater than 100000 nM.
The matching figures for `COc1ccc(NC(=O)c2cc3cc(C4(O)CCN(Cc5cc6ccccc6[nH]5)CC4)ccc3o2)cc1`: 272 nM, 650 nM and 20500 nM.
With `COc1cc(NC(=O)Cn2ccc3ccc([N+](=O)[O-])cc32)cc(OC)c1OC`, the EC50 with Plasmodium falciparum [1] turned out to be 439 nM; in the data set on Plasmodium falciparum [2] it was 319 nM. Also, the CC50 in data set [3] was greater than 10000 nM.
